Measured values reported in patent US20250177324A1, “A[…], AND PREPARATION METHOD THEREFOR AND USE THEREOF” (SHANGHAI ZHIGEN PHARMACEUTICAL & TECHNOLOGY CO. LTD., priority 2022, published 2025).
Structures can show the parent of a compound that is named as a salt. Where two headings read alike, the source gives them in different places.

Tests used:
C57 mice = assay: Forced swim test of oral administration in mice (antidepressant activity); assay type: in vivo; conditions: for inhibition in vivo at 20 mg/kg: Mus musculus, po
Protocol: To investigate the effects of different compounds on depression-like behavior in C57 mice by single oral administration of 20 mg/kg for 1 h and 24 h followed by forced swimming experiment, respectively.
The experimental animals were 6-week-old C57 mice, male, C57 breed mice purchased from Shanghai Slaughter Laboratory Animal Co. Ltd, weighing 20.45±0.19 g. The animals arrived at the Animal Breeding Center of the Shanghai Institute of Pharmaceutical Sciences, Chinese Academy of Sciences (Animal Production License: SCXK9[Shanghai]2004-0002, Use License: SYXK [Shanghai]2003-0029) before the experiments and were acclimated to the animal facilities for more than 3 days, 6 animals/cage were feed. The feeding environment was room temperature 23±0.2° C. and 12/12 h day/night alternating light and dark. Prior to behavioral testing, animals were moved to the behavioral testing room 2 hours in advance to acclimatize them to the environment and reduce their nervousness.
Preparation of the test material: the test compounds were weighed and dissolved in 0.9% NaCl solution, mixed well, and prepared into 1 mg/ml and 2 mg/ml solution for use, respectively.
24 h prior to drug administration, mice were placed in a cylindrical tank to acclimatize to the water environment for 10 min. On the day of the behavioral test, the animals were administered the drug once, by gavage/intraperitoneal injection at 1 h and 24 h prior to the behavioral test, respectively (as shown in Table 1).
The antidepressant effect of the compounds was evaluated by their ability to cause a reduction in the immobility time of the animals in the forced swim test compared to the blank group.

[1] = Solid-state chemical stability under different storage conditions (liquid chromatography); assay type: physicochemical; conditions: for Stability of solid state compound, 0 Days (%): liquid chromatography
Protocol: The HPLC conditions were as follows:
Configuration of test solution: appropriate amount of sample was dissolved and diluted with a diluent (0.03 mol/L phosphate buffer-acetonitrile (80:20)) to make 1 mg/mL solution.
Chromatographic conditions: according to the high performance liquid chromatography (Chinese Pharmacopoeia 2020 version of the four general 0512) test, using octadecyl-bonded silica gel (Agilent Eclipse Plus C18, 4.6 mm*250 mm, 5.0 μm, P/N for 959990-902 or a chromatographic column with equivalent performance) as a filler; 0.03 mol/L phosphate buffer (4.08 g of potassium dihydrogen phosphate was dissolved in 1000 ml of water and shaken well) was used as mobile phase A and acetonitrile as mobile phase B at a flow rate of 1 ml/min, the column temperature was 30° C., the detection wavelength was 220 nm, the injection volume was 10 ul, and the sample plate was controlled to 8° C. and running for 65 min. Gradient elution was performed according to the following table: […]
Configuration of test solution: appropriate amount of the product was dissolved and diluted with a diluent (0.1% phosphoric acid-acetonitrile (80:20)) to make 1 mg/mL solution.
Chromatographic conditions: according to the high performance liquid chromatography (Chinese Pharmacopoeia 2020 version of the four general 0512) test, using octadecyl bonded silica gel (Agilent Eclipse Plus C18, 4.6 mm*250 mm, 5.0 μm, P/N 959990-902 or a chromatographic column with equivalent performance) as a filler; 0.1% phosphate buffer (1 ml of phosphoric acid in 1000 ml of water and shake well) as mobile phase A, acetonitrile as mobile phase B, flow rate of 1 ml/min, column temperature of 30° C., detection wavelength of 220 nm, injection volume of 10 ul, running for 48 minutes. Gradient elution was performed according to the following table: […]

[2] = Brain tissue distribution study in rats; assay type: in vivo; conditions: SD rats, 10 mg/kg gavage
Protocol: Healthy male SD rats, randomly grouped with 3 rats in each group, were given the test compounds by gavage.
Each test compound was dissolved in saline to form a certain concentration solution for administration.
Fasting but not abstaining from water for 12-14 hours on the day before administration, and food was given 4 h after administration.
Brain tissues were collected after the animals were bled, cleaned, and homogenized with 50% ice methanol 1:4 (m/v). The collection time points were 5 min, 10 min, 30 min, and 2 h after the administration of subjects; 30.0 μL of tissue samples were taken (the samples were taken from the refrigerator at −80° C. and vortexed for 30 s after natural dissolution at room temperature) into 1.5 mL centrifugal tubes, and 300.0 μL of the internal standard solution (30 ng/mL buspirone in acetonitrile) was added; the samples were vortexed for 60 s, and centrifuged for 3 min (the centrifugal force was 12,000 rpm). 75 μL of the supernatant was transferred to a 96-well plate containing an equal volume of water, shaken to mix well and then sampled for LC-MS/MS analysis, the sample volume is 10 μL.

[3] = reduction of immobility time vs blank group, single gavage 20 mg/kg, test 1 h after dosing, read-out: 1 h inhibition (%)
[4] = reduction of immobility time vs blank group, single gavage 20 mg/kg, test 24 h after dosing, read-out: 24 h inhibition (%)

| SMILES | Stability of solid state compound, 0 Days (%) ([1]; 40° C., 75% RH) | Stability of solid state compound, 5 Days (%) ([1]; 40° C., 75% RH) | Stability of solid state compound, 10 Days (%) ([1]; 40° C., 75% RH) | inhibition in vivo at 20 mg/kg (C57 mice; [3]) | inhibition in vivo at 20 mg/kg (C57 mice; [4]) | Stability of solid state compound, 30 Days (%) ([1]; 40° C., 75% RH) | also measured |
| --- | --- | --- | --- | --- | --- | --- | --- |
| N[C@@]1(c2ccccc2Cl)CCC[C@@H](O)C1=O [(2R,6R)-HNK, reference compound] | 99.18% | 98.54% | 97.85% |  |  |  | 1 h inhibition (%) (C57 mice; reduction of immobility time vs blank group, single gavage 20 mg/kg, test 1 h after dosing): 21.1 ± 1.4%; 24 h inhibition (%) (C57 mice; reduction of immobility time vs blank group, single gavage 20 mg/kg, test 24 h after dosing): 24.8 ± 6.9%; brain/plasma ratio [2]: 0.95; AUC0-t brain ([2]; brain): 2480 ng·h/g; Cmax brain ([2]; brain): 1495 ng/g; AUC0-t plasma ([2]; plasma): 2610 ng·h/mL; Cmax plasma ([2]; plasma): 1480 ng/mL |
| Cl.N[C@@]1(c2ccc(C(F)(F)F)cc2)CCC[C@@H](O)C1=O [Comparative compound 1, reference compound] | 99.98% | 98.94% | 98.74% | 30.6 ± 3.1% | 35 ± 0.3% | 95.88% | Stability of solid state compound, 60 Days (%) ([1]; 40° C., 75% RH): 91.57% |
| CC1(C)CC[C@@](N)(c2ccccc2Cl)C(=O)[C@@H]1O [Comparative compound 4, reference compound] |  |  |  | 2.9 ± 1% | -17.2 ± 2% |  |  |
| N[C@@]1(c2ccccc2Cl)CC2(CC2)C[C@@H](O)C1=O [Comparative compound 5, reference compound] |  |  |  | 22.8 ± 2.5% | 19.1 ± 2.1% |  |  |
| CC1(C)C[C@@H](O)C(=O)[C@](N)(c2ccccc2Cl)C1 [Comparative compound 6, reference compound] |  |  |  | 18.2 ± 1.6% | 11.3 ± 2% |  |  |
| C[C@@]1(O)CCC[C@@](N)(c2ccc(C(F)(F)F)cc2)C1=O.Cl [Compound 52, (2R, 6R)-2-amino-6-hydroxy-6-methyl-2-(4-(trifluoromethyl)phenyl)cyclohexan-1-one hydrochloride] | 99.89% |  | 99.89% | 29.5 ± 1.1% | 25.6 ± 2.1% | 99.90% | Stability of solid state compound, 60 Days (%) ([1]; 40° C., 75% RH): 99.88%; Stability of solid state compound, 180 Days (%) ([1]; 40° C., 75% RH, 180 days): 99.82% |
| C[C@]1(O)CCC[C@@](N)(c2ccc(C(F)(F)F)cc2)C1=O.Cl [Compound 54, (2R, 6S)-2-amino-6-hydroxy-6-methyl-2-(4-(trifluoromethyl)phenyl)cyclohexan-1-one hydrochloride] | 99.27% |  | 99.23% | 33 ± 2.5% | 38.7 ± 3.3% |  | Stability of solid state compound, 60 Days (%) ([1]; 40° C., 75% RH): 99.20% |
| CN[C@@]1(c2cccc(OC(F)(F)F)c2F)CCC[C@](C)(O)C1=O [Compound 57, (2R,6S)-2-(2-fluoro-3-(trifluoromethoxy)phenyl)-6-hydroxy-6-methyl-2-(methylamino)cyclohexan-1-one hydrochloride] |  |  |  | 42.2 ± 1.8% | 36.5 ± 3% |  |  |
| CNC1(c2cccc(F)c2F)CCCC(C)(O)C1=O.Cl (stereo not shown) [Compound 65, 2-(2,3-difluorophenyl)-6-hydroxy-6-methyl-2-methylaminocyclohexan-1-one hydrochloride] | 99.54% | 99.37% | 99.32% | 26.4 ± 1.1% | 37.9 ± 2.3% | 99.22% |  |
| CN[C@@]1(c2cccc(OC(F)(F)F)c2)CCC[C@](C)(O)C1=O.Cl [Compound 68, (2S,6R)-2-hydroxy-2-methyl-6-methylamino-6-(3-(trifluoromethoxy)phenyl)cyclohexan-1-one hydrochloride] | 99.12% | 99.11% | 99.12% | 26.2 ± 4.1% | 37.4 ± 0.7% |  |  |
| CN[C@@]1(c2ccc(C(F)(F)F)cc2)CCC[C@@](C)(O)C1=O.Cl [Compound 71, (2R,6R)-2-hydroxy-2-methyl-6-methylamino-6-(4-(trifluoromethyl)phenyl)cyclohexan-1-one hydrochloride] | 99.67% | 99.46% | 99.46% | 42.4 ± 0.4% | 40.2 ± 1.6% | 99.45% |  |
| Cl.[2H]C([2H])([2H])N[C@@]1(c2ccc(C(F)(F)F)cc2)CCC[C@](C)(O)C1=O [Compound 76, (2S,6R)-2-hydroxy-2-methyl-6-trideutero-methylamino-6-(4-(trifluoromethyl)phenyl)cyclohexan-1-one hydrochloride] | 99.88% |  | 99.65% | 65.2 ± 0.8% | 47.1 ± 3.2% | 99.84% |  |
| CCN[C@@]1(c2ccc(C(F)(F)F)cc2)CCC[C@](C)(O)C1=O.Cl [Compound 77, (2R,6S)-2-ethylamino-6-hydroxy-6-methyl-2-(4-(trifluoromethyl)phenyl)cyclohexan-1-one hydrochloride] |  |  |  | 69.8 ± 1.6% | 44.3 ± 3.5% |  | Stability of solid state compound, 0 Days (%) ([1]; 25° C., 60% RH): 99.70%; Stability of solid state compound, 10 Days (%) ([1]; 25° C., 60% RH): 99.69%; Stability of solid state compound, 30 Days (%) ([1]; 25° C., 60% RH): 99.70% |
| CNCCC(Oc1ccc(C(F)(F)F)cc1)c1ccccc1 (stereo not shown) [Fluoxetine, reference compound] |  |  |  | 2.4 ± 1.1% | 2.3 ± 3.1% |  | antidepressant effect in the forced swim test (in words) (C57 mice; oral administration, 1 h and 24 h): did not show antidepressant effect |
